Data on five molecules can be found in patent US11103504B2, “Combination of a DNA condensation-inducing compound and an Eis inhibitor for antibiotic treatment” (priority 2018, dated 2021).

Experiment [1] relates to M. tuberculosis mc^26030. Type of experiment: cell-based, Mycobacterium tuberculosis. The following applies: 1 hour after FA treatment vs untreated.
Experiment [2] deals with M. smegmatis mc^2155. As to the kind of experiment: Transmission electron microscopy of ultrathin sections. Type of experiment: cell-based, Mycobacterium smegmatis. The conditions noted are these: FA treated, early log phase.
The test system of experiment [3] is M. smegmatis mc^2155. As to the kind of experiment: Monitoring mycobacterial survival (OD600, CFU). Type of experiment: cell-based, Mycobacterium smegmatis. The conditions noted are these: combination of fusidic acid and Eis inhibition. The method, then: M. smegmatis mc^2155 overnight cultures were treated with FA, EIS inhibitor 1a*, or a combination hereof. Cultures were treated with antibiotic for 1 hour before second antibiotic was administered. Before treatment, and after 2 hours and at day 1,2,3 and 6, the OD600 was determined with a spectrophotometer, and a sample of the culture was fixed, or plated in a dilution series on 7H10 plates in triplo. At day 2, the antibiotic treatment was repeated. At least 3 independent experiments were quantified per condition.
In all experiments, factor correction was applied to remove systematic differences between the different measuring sessions needed to obtain the results. In case of 2 experimental conditions, Student's t-test was applied. […] To further dissect these effects, a 1-way ANOVA per time point was performed.

Experiment [4] concerns M. tuberculosis mc^26030. As to the kind of experiment: DNA-condensation incidence by fluorescence microscopy. The following applies: for fraction of bacilli with condensed DNA: 20 times the MIC50, 1 hour, vs control, P<0.05, FIG. 2D; for induction of condensation of the DNA: summary statement. Type of experiment: cell-based, Mycobacterium tuberculosis.
In a further experiment the test system is M. smegmatis mc^2 155. As to the kind of experiment: DNA volume quantification (deconvolved wide-field FM). Type of experiment: cell-based, Mycobacterium smegmatis. The following applies: incubated with FA for 1 hour, FIG. 5B. Here is the method:
Z-stack Wide-field FM images of fixed M. smegmatis mc^2 155 stained for DNA and lipids were collected at 200 nm increments. Deconvolution and DNA volume quantification was subsequently performed using standard deconvolution parameters of Huygens Professional software (Scientific Volume Imaging, SVI, Hilversum, The Netherlands). Average volume was determined for 60 bacteria per condition per experiment and standard deviation was calculated with 2-tailed T-test.

Experiment [5] concerns M. smegmatis mc^23449 SMC triple deletion mutant. Type of experiment: cell-based, Mycobacterium smegmatis. The following applies: FA 1 hour, FIGS. 6A-B.
Another experiment concerns M. smegmatis. As to the kind of experiment: Live cell imaging with bacterial viability staining. Type of experiment: cell-based, Mycobacterium smegmatis. The following applies: live-cell imaging started 5 minutes after FA addition.
For experiment [6], the system named is M. smegmatis mc^2155. As to the kind of experiment: DNA localization / DNA-condensation by fluorescence microscopy. Type of experiment: cell-based, Mycobacterium smegmatis.

The structures appear in SMILES notation.

Consider `CC(=O)O[C@H]1C[C@@]2(C)[C@@H](C[C@@H](O)[C@H]3[C@@]4(C)CC[C@@H](O)[C@@H](C)[C@@H]4CC[C@@]32C)/C1=C(\CCC=C(C)C)C(=O)O` [fusidic acid], for which, in the experiment with M. tuberculosis mc^26030 [1], the “percentage of nonviable bacteria with condensed DNA” value was “did not differ” and the “percentage of viable bacteria with condensed DNA” value is reported as “increased significantly”. For the same molecule, in the experiment on M. smegmatis mc^2155 [2], the “ultrastructural DNA localization (TEM)” value is “bundles of DNA were localized in a single compact nucleoid”. For the same molecule, in the experiment on M. smegmatis mc^2155 [3], the “potentiation of efficacy by the combination” value came out at 10 fold. In addition, in the experiment on M. tuberculosis mc^26030 [4], the “incidence of DNA-condensation after wash-out (reversibility)” value was “increased until 6 hours after treatment, followed by a gradual reduction”; the “fraction of bacilli with condensed DNA” value is on record as “increased the percentage bacteria with condensed DNA significantly”; the “induction of condensation of the DNA” value is “can induce condensation of the DNA”. Besides, the “DNA localization after FA treatment” value in the experiment with M. tuberculosis mc^26030 [4] (same experimental conditions as M. smegmatis, FIG. 2B) is recorded as “condensed their DNA into a single nucleoid”. For the same molecule, the “average 3D volume of the DNA clusters” value in the experiment on M. smegmatis mc^2 155 came to 0.24 μm^3. For the same molecule, in experiment [5], the “DNA condensation after FA treatment in SMC triple knock out” value is recorded as “clearly visible”. Further, the “time until first bacteria converted from viable to inviable” value with M. smegmatis was determined as 16 min. Moreover, the “DNA distribution after 2 days” value with M. smegmatis mc^2155 [6] (2 days of incubation, first agent 1 hour before second) is “still displayed condensed DNA”. In addition, in the experiment with M. smegmatis mc^2155 [6] (after 1 hour of antibiotic stress, FIG. 2C), the “bacteria that condensed their nucleoid” value is “more than 80%”. In addition, the “bacteria that condensed their DNA into a single nucleoid after FA treatment” value with M. smegmatis mc^2155 [6] (early log phase, FIG. 2A) is “more than 90%”.

For `[H]/N=C(/N)N[C@H]1[C@H](O)[C@@H](O)[C@H](O[C@@H]2O[C@@H](C)[C@](O)(C=O)[C@H]2O[C@@H]2O[C@@H](CO)[C@H](O)[C@@H](O)[C@@H]2NC)[C@@H](N/C(N)=N\[H])[C@@H]1O` [streptomycin], in the experiment with M. tuberculosis mc^26030 [4], the “fraction of bacilli with condensed DNA” value was “increased the percentage bacteria with condensed DNA significantly” and the “induction of condensation of the DNA” value is “can induce condensation of the DNA”.

In the case of `NNC(=O)c1ccncc1` [isoniazid], the “induction of condensation of the DNA” value in the experiment on M. tuberculosis mc^26030 [4] is listed as “can induce condensation of the DNA”.

Regarding `CCn1cc(C(=O)O)c(=O)c2ccc(C)nc21` [nalidixic acid], in the experiment with M. tuberculosis mc^26030 [4], the “fraction of bacilli with condensed DNA” value is given as “increased the percentage bacteria with condensed DNA significantly” and the “induction of condensation of the DNA” value is on record as “can induce condensation of the DNA”.

`CC(=O)NC[C@H]1CN(c2ccc(N3CCOCC3)c(F)c2)C(=O)O1` [linezolid]: in the experiment on M. tuberculosis mc^26030 [4], the “induction of condensation of the DNA” value is reported as “can induce condensation of the DNA”.
